Results as given in PubChem BioAssay (NCI).
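Test compounds were applied to cells in 96-well plates for 48 hours at 5 doses. The concentration for full growth arrest is given as TGI.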

Key:
Assay in all cases: NCI tumour cell line growth inhibition, 48 h
HOP-18 NSCLC = system: HOP-18 NSCLC
LXFL 529 NSCLC = system: LXFL 529 NSCLC
RXF-631 renal = system: RXF-631 renal
XF 498 CNS = system: XF 498 CNS
M19-MEL melanoma = system: M19-MEL melanoma
SN12K1 renal = system: SN12K1 renal
P388/ADR leukemia = system: P388/ADR leukemia
P388 leukemia = system: P388 leukemia

Row | Structure (SMILES) | TGI (HOP-18 NSCLC) | TGI (LXFL 529 NSCLC) | TGI (RXF-631 renal) | TGI (XF 498 CNS) | TGI (M19-MEL melanoma) | TGI (SN12K1 renal) | TGI (P388/ADR leukemia) | TGI (P388 leukemia)
1 | Cc1ccc(CC(C)N)cc1 (configuration not stated) | > 100 µM | > 100 µM | > 100 µM | – | – | – | – | –
2 | N#C/C(=C\c1c[nH]c2ccccc12)C(=O)c1ccc(O)c(O)c1 | 93.5 µM | > 100 µM | – | > 100 µM | > 100 µM | – | – | –
3 | COc1cc(/C=C(/C#N)C(N)=O)ccc1O | > 100 µM | – | – | > 100 µM | > 100 µM | > 100 µM | > 100 µM | > 100 µM
4 | CC(NC(C)(C)C)C(=O)c1cccc(Cl)c1 (configuration not stated) | – | > 100 µM | > 100 µM | > 100 µM | > 100 µM | – | – | –
5 | CCOC(=O)CSc1nnc(C(Sc2nc(-c3ccccc3)c(-c3ccccc3)[nH]2)C(C)C)n1-c1ccccc1 (configuration not stated) | – | > 10 µM | – | – | > 10 µM | – | – | –
6 | Nc1ccc(C(=O)NN2C(=O)C(Cl)C2c2ccccc2)cc1 (configuration not stated) | – | > 100 µM | – | > 100 µM | > 100 µM | – | – | –
